Measurements: patent publication US11370798B2 (Vertex Pharmaceuticals Incorporated, priority 2012, dated 2022)

What follows are compounds tested on HCT116 colorectal cancer cells (assay: Cisplatin sensitization assay (96 h cell viability MTS)). Conditions: compound and Cisplatin added simultaneously, Cisplatin sensitization value.
Format: cell-based
Procedure, shortened: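 Compound and cisplatin added together as a full matrix of 2-fold serial dilutions from a top final concentration of 10 μM; cells incubated 96 h at 37° C, 5% CO2. Viability then read by MTS after 1 h further incubation; sensitization value reported in μM bins.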
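Further: Test-compound concentration that lowers the Cisplatin IC50 by a set fold.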

Row | SMILES | Cisplatin Sensitization Assay
1 | CC(C)Oc1ccncc1NC(=O)c1c(N)nn2cc(CC#N)cnc12 [I-O-35, 2-amino-6-(cyanomethyl)-N-(4-isopropoxypyridin-3-yl)pyrazolo[1,5-a]pyrimidine-3-carboxamide] | +++ (Cisplatin sensitization value of <0.02 μM)
2 | CN1CCN(c2ccc(-c3ccncc3NC(=O)c3c(N)nn4cc(F)cnc34)cn2)CC1 [I-C-21, 2-amino-6-fluoro-N-(6-(4-methylpiperazin-1-yl)-[3,4′-bipyridin]-3′-yl)pyrazolo[1,5-a]pyrimidine-3-carboxamide] | +++ (Cisplatin sensitization value of <0.02 μM)
3 | Nc1nn2cc(F)cnc2c1C(=O)Nc1cnccc1C1CCN(C2COC2)CC1 [I-C-10, 2-amino-6-fluoro-N-(4-(1-(oxetan-3-yl)piperidin-4-yl)pyridin-3-yl)pyrazolo[1,5-a]pyrimidine-3-carboxamide] | +++ (Cisplatin sensitization value of <0.02 μM)
4 | CN1CCN(CC2CCN(c3c(F)cncc3NC(=O)c3c(N)nn4cc(C5(C#N)CC5)cnc34)CC2)CC1 [I-N-192, 2-amino-6-(1-cyanocyclopropyl)-N-(5-fluoro-4-(4-((4-methylpiperazin-1-yl)methyl)piperidin-1-yl)pyridin-3-yl)pyrazolo[1,5-a]pyrimidine-3-carboxamide] | +++ (Cisplatin sensitization value of <0.02 μM)
5 | N#CCc1cnc2c(C(=O)Nc3cnccc3OC3CCC3)c(N)nn2c1 [I-O-36, 2-amino-6-(cyanomethyl)-N-(4-cyclobutoxypyridin-3-yl)pyrazolo[1,5-a]pyrimidine-3-carboxamide] | +++ (Cisplatin sensitization value of <0.02 μM)
6 | Nc1nn2cc(F)cnc2c1C(=O)Nc1cncc(F)c1N1CCN2CCOC[C@H]2C1 [I-N-135, (R)-2-amino-6-fluoro-N-(5-fluoro-4-(hexahydropyrazino[2,1-c][1,4]oxazin-8(1H)-yl)pyridin-3-yl)pyrazolo[1,5-a]pyrimidine-3-carboxamide] | +++ (Cisplatin sensitization value of <0.02 μM)
7 | CS(=O)(=O)C1CCN(c2ccncc2NC(=O)c2c(N)nn3cc(F)cnc23)CC1 [I-N-190, 2-amino-6-fluoro-N-(4-(4-(methylsulfonyl)piperidin-1-yl)pyridin-3-yl)pyrazolo[1,5-a]pyrimidine-3-carboxamide] | +++ (Cisplatin sensitization value of <0.02 μM)
8 | Nc1nn2cc(F)cnc2c1C(=O)Nc1cnccc1N1CCC(S(=O)(=O)N2CCC2)CC1 [I-N-271, 2-amino-N-(4-(4-(azetidin-1-ylsulfonyl)piperidin-1-yl)pyridin-3-yl)-6-fluoropyrazolo[1,5-a]pyrimidine-3-carboxamide] | +++ (Cisplatin sensitization value of <0.02 μM)
9 | CN1CCN(C(=O)C2CCCN(c3c(F)cncc3NC(=O)c3c(N)nn4cc(F)cnc34)C2)CC1 (stereo not shown) [I-N-289, 2-amino-6-fluoro-N-(5-fluoro-4-(3-(4-methylpiperazine-1-carbonyl)piperidin-1-yl)pyridin-3-yl)pyrazolo[1,5-a]pyrimidine-3-carboxamide] | ++ (Cisplatin sensitization value>0.02 μM but <0.2 μM)
10 | Nc1nn2cc(F)cnc2c1C(=O)Nc1cnccc1-n1cccn1 [I-N-26, N-(4-(1H-pyrazol-1-yl)pyridin-3-yl)-2-amino-6-fluoropyrazolo[1,5-a]pyrimidine-3-carboxamide] | + (Cisplatin sensitization value>0.2 μM but <5 μM)
11 | Nc1nn2cc(F)cnc2c1C(=O)Nc1cncc(F)c1N1CCN2C(=O)CCC2C1 (stereo not shown) [I-N-163, 2-amino-6-fluoro-N-(5-fluoro-4-(6-oxohexahydropyrrolo[1,2-a]pyrazin-2(1H)-yl)pyridin-3-yl)pyrazolo[1,5-a]pyrimidine-3-carboxamide] | +++ (Cisplatin sensitization value of <0.02 μM)
12 | Nc1nn2cc(F)cnc2c1C(=O)Nc1cncc(F)c1N1CCC2(CC1)COC2 [I-N-239, 2-amino-6-fluoro-N-(5-fluoro-4-(2-oxa-7-azaspiro[3.5]nonan-7-yl)pyridin-3-yl)pyrazolo[1,5-a]pyrimidine-3-carboxamide] | +++ (Cisplatin sensitization value of <0.02 μM)
13 | Nc1nn2cc(F)cnc2c1C(=O)Nc1cncc(F)c1N1CCN(S(=O)(=O)C2CC2)CC1 [I-N-159, 2-amino-N-(4-(4-(cyclopropylsulfonyl)piperazin-1-yl)-5-fluoropyridin-3-yl)-6-fluoropyrazolo[1,5-a]pyrimidine-3-carboxamide] | +++ (Cisplatin sensitization value of <0.02 μM)
14 | CO[C@H]1CCN(C(=O)C2CCN(c3c(F)cncc3NC(=O)c3c(N)nn4cc(F)cnc34)CC2)C1 [I-G-99, (S)-2-amino-6-fluoro-N-(5-fluoro-4-(4-(3-methoxypyrrolidine-1-carbonyl)piperidin-1-yl)pyridin-3-yl)pyrazolo[1,5-a]pyrimidine-3-carboxamide] | +++ (Cisplatin sensitization value of <0.02 μM)
15 | Nc1nn2cc(F)cnc2c1C(=O)Nc1cncc(F)c1N1CCC(CN2CCCC2=O)CC1 [I-N-213, 2-amino-6-fluoro-N-(5-fluoro-4-(4-((2-oxopyrrolidin-1-yl)methyl)piperidin-1-yl)pyridin-3-yl)pyrazolo[1,5-a]pyrimidine-3-carboxamide] | +++ (Cisplatin sensitization value of <0.02 μM)
16 | Nc1nn2cc(Cl)cnc2c1C(=O)Nc1cnccc1N1CCN2CCC[C@H]2C1 [I-N-71, (S)-2-amino-6-chloro-N-(4-(hexahydropyrrolo[1,2-a]pyrazin-2(1H)-yl)pyridin-3-yl)pyrazolo[1,5-a]pyrimidine-3-carboxamide] | +++ (Cisplatin sensitization value of <0.02 μM)
17 | Nc1nn2cc(F)cnc2c1C(=O)Nc1cnccc1-c1ccc(C(=O)N2CCNCC2)cc1 [I-C-44, 2-amino-6-fluoro-N-(4-(4-(piperazine-1-carbonyl)phenyl)pyridin-3-yl)pyrazolo[1,5-a]pyrimidine-3-carboxamide] | +++ (Cisplatin sensitization value of <0.02 μM)
18 | CN1CCN(C(=O)C2CCN(c3c(F)cncc3NC(=O)c3c(N)nn4cc(F)cnc34)CC2)CC1 [I-G-4, 2-amino-6-fluoro-N-(5-fluoro-4-(4-(4-methylpiperazine-1-carbonyl)piperidin-1-yl)pyridin-3-yl)pyrazolo[1,5-a]pyrimidine-3-carboxamide] | +++ (Cisplatin sensitization value of <0.02 μM)
19 | Cc1nnccc1-c1ccncc1NC(=O)c1c(N)nn2cc(F)cnc12 [I-C-31, 2-amino-6-fluoro-N-(4-(3-methylpyridazin-4-yl)pyridin-3-yl)pyrazolo[1,5-a]pyrimidine-3-carboxamide] | +++ (Cisplatin sensitization value of <0.02 μM)
20 | Nc1nn2cc(F)cnc2c1C(=O)Nc1cnccc1CN1CCCC1=O [I-C-76, 2-amino-6-fluoro-N-(4-((2-oxopyrrolidin-1-yl)methyl)pyridin-3-yl)pyrazolo[1,5-a]pyrimidine-3-carboxamide] | + (Cisplatin sensitization value>0.2 μM but <5 μM)
21 | CN1CCN(c2ccncc2NC(=O)c2c(N)nn3cc(F)cnc23)CC1 [I-N-3, 2-amino-6-fluoro-N-(4-(4-methylpiperazin-1-yl)pyridin-3-yl)pyrazolo[1,5-a]pyrimidine-3-carboxamide] | +++ (Cisplatin sensitization value of <0.02 μM)
22 | Nc1nn2cc(F)cnc2c1C(=O)Nc1cncc(F)c1N1CCC(C(=O)N2CCC(N3CCCCC3)CC2)CC1 [I-G-60, N-(4-(4-([1,4′-bipiperidine]-1′-carbonyl)piperidin-1-yl)-5-fluoropyridin-3-yl)-2-amino-6-fluoropyrazolo[1,5-a]pyrimidine-3-carboxamide] | +++ (Cisplatin sensitization value of <0.02 μM)
23 | CN1CCN(CC2CCN(c3c(F)cncc3NC(=O)c3c(N)nn4cc(F)cnc34)CC2)C(=O)C1 [I-N-193, 2-amino-6-fluoro-N-(5-fluoro-4-(4-((4-methyl-2-oxopiperazin-1-yl)methyl)piperidin-1-yl)pyridin-3-yl)pyrazolo[1,5-a]pyrimidine-3-carboxamide] | +++ (Cisplatin sensitization value of <0.02 μM)
24 | Nc1nn2cc(F)cnc2c1C(=O)Nc1cnccc1OC1CCOC1 (racemic) [I-O-15, (R,S)-2-amino-6-fluoro-N-(4-((tetrahydrofuran-3-yl)oxy)pyridin-3-yl)pyrazolo[1,5-a]pyrimidine-3-carboxamide] | +++ (Cisplatin sensitization value of <0.02 μM)
25 | COc1cncc(NC(=O)c2c(N)nn3cc(F)cnc23)c1C1CC1 [I-C-84, 2-amino-N-(4-cyclopropyl-5-methoxypyridin-3-yl)-6-fluoropyrazolo[1,5-a]pyrimidine-3-carboxamide] | ++ (Cisplatin sensitization value>0.02 μM but <0.2 μM)
26 | Nc1nn2cc(F)cnc2c1C(=O)Nc1cncc(F)c1N1CCN(C(=O)C2COC2)CC1 [I-N-278, 2-amino-6-fluoro-N-(5-fluoro-4-(4-(oxetane-3-carbonyl)piperazin-1-yl)pyridin-3-yl)pyrazolo[1,5-a]pyrimidine-3-carboxamide] | +++ (Cisplatin sensitization value of <0.02 μM)
27 | CN(C)C1CCN(C2CCN(c3ccncc3NC(=O)c3c(N)nn4cc(Cl)cnc34)CC2)C1 (stereo not shown) [I-N-106, 2-amino-6-chloro-N-(4-(4-(3-(dimethylamino)pyrrolidin-1-yl)piperidin-1-yl)pyridin-3-yl)pyrazolo[1,5-a]pyrimidine-3-carboxamide] | +++ (Cisplatin sensitization value of <0.02 μM)
28 | CN(C)C1CCN(c2ccncc2NC(=O)c2c(N)nn3cc(Cl)cnc23)CC1 [I-N-37, 2-amino-6-chloro-N-(4-(4-(dimethylamino)piperidin-1-yl)pyridin-3-yl)pyrazolo[1,5-a]pyrimidine-3-carboxamide] | ++ (Cisplatin sensitization value>0.02 μM but <0.2 μM)
